According to BigSolDB 2.1:

O=C(O)c1cccc(C(=O)O)n1
Details	solubility (mole fraction)
in 1,4-dioxane, 293.15 K	0.00197
in 1,4-dioxane, 298.15 K	0.00219
in 1,4-dioxane, 303.15 K	0.0025
in 1,4-dioxane, 308.15 K	0.00291
in 1,4-dioxane, 313.15 K	0.00336
in 1,4-dioxane, 318.15 K	0.00393
in 1,4-dioxane, 323.15 K	0.00481
in 1,4-dioxane, 328.15 K	0.00567
in 1,4-dioxane, 333.15 K	0.00671
in THF, 278.15 K	0.00256
in THF, 283.15 K	0.00275
in THF, 288.15 K	0.00302
in THF, 293.15 K	0.00338
in THF, 298.15 K	0.00381
in THF, 303.15 K	0.00421
in THF, 308.15 K	0.00462
in THF, 313.15 K	0.00494
in THF, 318.15 K	0.00549
in acetic acid, 293.15 K	0.000799
in acetic acid, 298.15 K	0.000876
in acetic acid, 303.15 K	0.000991
in acetic acid, 308.15 K	0.00116
in acetic acid, 313.15 K	0.00131
in acetic acid, 318.15 K	0.00156
in acetic acid, 323.15 K	0.00177
in acetic acid, 328.15 K	0.00197
in acetic acid, 333.15 K	0.00227
in acetonitrile, 278.15 K	0.000183
in acetonitrile, 283.15 K	0.000225
in acetonitrile, 288.15 K	0.000258
in acetonitrile, 293.15 K	0.000306
in acetonitrile, 298.15 K	0.000379
in acetonitrile, 303.15 K	0.000453
in acetonitrile, 308.15 K	0.000548
in acetonitrile, 313.15 K	0.000653
in acetonitrile, 318.15 K	0.000779
in ethanol, 278.15 K	0.00378
in ethanol, 288.15 K	0.00492
in ethanol, 293.15 K	0.00579
in ethanol, 298.15 K	0.00702
in ethanol, 303.15 K	0.00846
in ethanol, 308.15 K	0.00974
in ethanol, 313.15 K	0.0114
in ethanol, 318.15 K	0.0142
in ethyl acetate, 278.15 K	0.000247
in ethyl acetate, 283.15 K	0.000353
in ethyl acetate, 288.15 K	0.000602
in ethyl acetate, 293.15 K	0.000897
in ethyl acetate, 298.15 K	0.00131
in ethyl acetate, 303.15 K	0.00215
in ethyl acetate, 308.15 K	0.00329
in ethyl acetate, 313.15 K	0.00477
in ethyl acetate, 318.15 K	0.00742
in formic acid, 278.15 K	0.00285
in formic acid, 283.15 K	0.00305
in formic acid, 288.15 K	0.00326
in formic acid, 293.15 K	0.00361
in formic acid, 298.15 K	0.00408
in formic acid, 303.15 K	0.00456
in formic acid, 308.15 K	0.00507
in formic acid, 313.15 K	0.00596
in formic acid, 318.15 K	0.00694
in isopropanol, 278.15 K	0.0038
in isopropanol, 283.15 K	0.00417
in isopropanol, 288.15 K	0.00485
in isopropanol, 293.15 K	0.00555
in isopropanol, 298.15 K	0.00638
in isopropanol, 303.15 K	0.00735
in isopropanol, 308.15 K	0.00896
in isopropanol, 313.15 K	0.0106
in isopropanol, 318.15 K	0.0125
in methanol, 278.15 K	0.00449
in methanol, 283.15 K	0.0048
in methanol, 288.15 K	0.00547
in methanol, 293.15 K	0.00676
in methanol, 298.15 K	0.00874
in methanol, 303.15 K	0.0118
in methanol, 308.15 K	0.0155
in methanol, 313.15 K	0.0209
in methanol, 318.15 K	0.026
in n-propanol, 278.15 K	0.00311
in n-propanol, 283.15 K	0.00361
in n-propanol, 288.15 K	0.00433
in n-propanol, 293.15 K	0.00512
in n-propanol, 298.15 K	0.00632
in n-propanol, 303.15 K	0.00761
in n-propanol, 308.15 K	0.00892
in n-propanol, 313.15 K	0.0107
in n-propanol, 318.15 K	0.0135
in toluene, 278.15 K	0.000365
in toluene, 283.15 K	0.000582
in toluene, 288.15 K	0.000848
in toluene, 293.15 K	0.00119
in toluene, 298.15 K	0.00175
in toluene, 303.15 K	0.00253
in toluene, 308.15 K	0.00356
in toluene, 313.15 K	0.00487
in toluene, 318.15 K	0.00589
